Where two headings read alike, the source gives them in different places.
Assays:
[1] = Protein binding in human serum by Sephadex G-50 size-exclusion chromatography; format: in vitro ADME; details: human serum; time point not given
Method: (§1) The stability studies with the ^177Lu-labeled peptide analogs were carried out at a concentration of 0.5 nmol peptide/mL in fresh human serum (n = 2) for up to 24 h. A mixture of 0.05 nmol/mL of the radiolabeled peptides in PBS and octanol (1/1, v/v) was used to evaluate the octanol/PBS distribution coefficient (logD7.4; n = 8). To determine the protein binding in human serum by Sephadex G-50 size-exclusion chromatography (GE Healthcare Illustra, Little Chalfont, UK), a 25 µL serum sample was used for different time points after incubation. All steps were performed according to previously published protocols.

[2] = Stability of 177Lu-labeled peptides in fresh human serum; format: in vitro ADME; details: 37 °C, 24 h incubation
Method: as §1

[3] = BALB/c mice, cited from earlier work
[4] = Biodistribution blocking experiment with 1000-fold excess of non-radiolabeled peptide; format: in vivo, mice; details: female, BALB/c nude, mouse, iv, total radioactivity, 4 h p.i., 1000-fold excess of non-radiolabeled peptide, n=1
Method: (§2) Then, after 7–11 days, when visible tumor xenografts were formed, groups of 5 mice were injected intravenously via a lateral tail vein with ~0.5 MBq of radiolabeled peptide, corresponding to 20 pmol of peptide, in a total volume of ~150 µL in PBS/0.5% BSA. Using an additional mouse per group, a blocking study was performed by co-injecting a 1000-fold molar excess of the respective peptide analog (20 nmol) together with the radiolabeled peptide. For quantification, a 1:1, 1:10 and 1:50 standard was prepared using aliquots of the injection solution mixed with PBS/0.5% BSA. Mice were euthanized by cervical dislocation 4 h after injection. Subsequently, a blood sample was collected, and different tissues were dissected. All samples, as well as the rest of the body were weighed, and the activity measured in the γ-counter together with the standard. Results were expressed as percentage of injected activity per gram of tissue (%IA/g).

[5] = system: A431-CCK2R/A431-mock xenografted BALB/c nude mice; assay: as above; format: in vivo; details: 4 h p.i., 1000-fold excess of non-radiolabeled peptide, n=1
Method: as §2

[6] = Octanol/PBS distribution coefficient (logD7.4); format: physicochemical; details: octanol/PBS 1/1, pH 7.4; read-out: logD (octanol/PBS)
Method: as §1

[7] = Biodistribution 4 h p.i. in A431-CCK2R/A431-mock xenografted BALB/c nude mice; format: in vivo; details: female, BALB/c nude, mouse, iv, 20 pmol, total radioactivity, 4 h p.i., 20 pmol; for tissue uptake at 4 h: ~0.5 MBq, n=5
Method: as §2

[8] = system: A431-CCK2R/A431-mock xenografted BALB/c nude mice; assay: as above; format: in vivo; details: 4 h p.i., ~0.5 MBq, 20 pmol, n=5
Method: as §2

- fraction unbound [1]: 0.667
- intact radiopeptide in human serum [2]: 96.9 ± 0.3%
- tissue uptake at 4 h ([4]; A431-CCK2R tumor xenograft, read-out: uptake in A431-CCK2R xenograft, blocking): 0.54 %ID/g
- tissue uptake at 4 h ([4]; A431-mock tumor xenograft, read-out: uptake in A431-mock xenograft, blocking): 0.34 %ID/g
- tissue uptake at 4 h ([4]; blood, read-out: uptake in blood, blocking): 0.09 %ID/g
- tissue uptake at 4 h ([4]; femur, read-out: uptake in femur, blocking): 0.04 %ID/g
- tissue uptake at 4 h ([4]; heart, read-out: uptake in heart, blocking): 0.08 %ID/g
- tissue uptake at 4 h ([4]; lung, read-out: uptake in lung, blocking): 0.08 %ID/g
- tissue uptake at 4 h ([4]; pancreas, read-out: uptake in pancreas, blocking): 0.11 %ID/g
- tissue uptake at 4 h ([4]; stomach, read-out: uptake in stomach, blocking): 0.09 %ID/g
- uptake in intestine, blocking [5]: 0.79 % IA/g
- uptake in kidneys, blocking [5]: 2.95 % IA/g
- uptake in liver, blocking [5]: 0.54 % IA/g
- uptake in muscle, blocking [5]: 0.03 % IA/g
- uptake in spleen, blocking [5]: 0.16 % IA/g
- logD [6]: -2.25 ± 0.13
- tissue uptake at 4 h ([7]; A431-CCK2R tumor xenograft, read-out: uptake in A431-CCK2R xenografts): 22.8 ± 4.67 %ID/g
- tissue uptake at 4 h ([7]; A431-mock tumor xenograft, read-out: uptake in A431-mock xenografts): 0.19 ± 0.03 %ID/g
- tissue uptake at 4 h ([7]; blood, read-out: uptake in blood): 0.11 ± 0.11 %ID/g
- tissue uptake at 4 h ([7]; femur, read-out: uptake in femur): 0.36 ± 0.35 %ID/g
- tissue uptake at 4 h ([7]; heart, read-out: uptake in heart): 0.1 ± 0.06 %ID/g
- tissue uptake at 4 h ([7]; intestine, read-out: uptake in intestine): 1.02 ± 0.23 %ID/g
- tissue uptake at 4 h ([7]; kidneys, read-out: uptake in kidneys): 3.45 ± 0.91 %ID/g
- tissue uptake at 4 h ([7]; liver, read-out: uptake in liver): 1.02 ± 0.8 %ID/g
- tissue uptake at 4 h ([7]; lung, read-out: uptake in lung): 0.17 ± 0.14 %ID/g
- tissue uptake at 4 h ([7]; muscle, read-out: uptake in muscle): 0.1 ± 0.02 %ID/g
- tissue uptake at 4 h ([7]; pancreas, read-out: uptake in pancreas): 1.91 ± 0.91 %ID/g
- tissue uptake at 4 h ([7]; spleen, read-out: uptake in spleen): 0.27 ± 0.18 %ID/g
- tissue uptake at 4 h ([7]; stomach, read-out: uptake in stomach): 6.26 ± 4.28 %ID/g
- tissue to tissue ratio at 4 h ([7]; tumor / kidney, read-out: tumor-to-kidney ratio): 7
- uptake in liver [8]: 1.02 ± 0.23 % IA/g
Structure (SMILES): CCCC[C@@H](C(=O)N[C@@H](CC(=O)O)C(=O)N[C@@H](Cc1cccc2ccccc12)C(N)=O)N(C)C(=O)[C@H](Cc1c[nH]c2ccccc12)NC(=O)CNC(=O)[C@H](Cc1ccc(O)cc1)NC(=O)[C@H](C)NC(=O)[C@@H](CCC(=O)O)NC(=O)CN1CCN(CC(=O)O)CCN(CC(=O)O)CCN(CC(=O)O)CC1 [[^177Lu]Lu-DOTA-MGS5, metal not drawn, reference compound]
- intact radiopeptide in blood ([3]; 10 min after intravenous injection): 86%
- intact radiopeptide in blood ([3]; 30 min p.i.): 77%
- intact radiopeptide in blood ([3]; 1 h after intravenous injection): 70%
